For assay [1], the system named is BCKD. In words: BCKD activity in mouse cardiac tissue. It is filed as in vivo. The conditions noted are these: BT2 vs vehicle. How it is done:
PP2Cm germ-line knockout (PP2Cm-KO) mice were generated as previously described (Lu et al. (2009), supra). PP2Cm KO mice were backcrossed for more than 8 generations into a C57BL/6 background. Wild type C57BL/6 mice and PP2Cm KO mice were housed at 22° C. with a 12-hour light, 12-hour dark cycle with free access to water and standard chow. Studies were performed with male mice. Human cohorts of dilated cardiomyopathy and controls were obtained from Columbia and Duke with Institutional Review Board approval. All animal procedures were carried out in accordance with the guidelines and protocols approved by the University of California at Los Angeles Institutional Animal Care and Use Committee (IACUC). Transaortic constriction (TAC) and cardiac echocardiography were performed as reported earlier 17 on mice from different genotypes between 14 and 16 weeks of age. […] Measurements of BCKD activity in mouse cardiac tissue and plasma BCKA/BCAA concentrations were performed as previously described (Tso et al. (2014), supra).

Assay [2] can be described thus: Plasma BCAA/BCKA in DIO mice treated with BT2. Format: in vivo, mouse. The conditions noted are these: BT2 40 mg/kg/day 8 weeks. On the procedure: (§1) Animals were euthanized using carbon dioxide asphyxiation followed by cervical dislocation and then dissected. Blood was harvested by cardiac puncture and centrifuged to isolate plasma which was stored at −80° C. Acidified citrate dextrose was used as an anticoagulant. Immediately after blood collection, heart, liver, kidneys, and both hind leg quadriceps muscles were removed and snap frozen in liquid nitrogen.
The endogenous signal from blank plasma was subtracted from each point on the standard curve, and the data were plotted in GraphPad Prism. BCAA concentrations in treated samples were determined based on this standard curve.

Assay [3] concerns pressure-overloaded mouse heart. The experiment in a line: Metabolic gene expression (quantitative PCR) in pressure-overloaded mouse heart. Format: in vivo. An excerpt: Total RNA was extracted from heart tissues using Trizol Reagent (Invitrogen) according to the manufacturer's instructions. Total RNA was reverse-transcribed into the first-strand cDNA using ProtoScript® II Reverse Transcriptase (New England BioLabs). Then, cDNA transcripts were quantified by the CFX Real-Time PCR System (BioRad). 18sRNA were used for normalization except where indicated. PCR primer information is available upon request.

In assay [4] the test system is BCKD. In words: BCKD activity in tissues of ob/ob mice treated with BT2. The following applies: BT2 40 mg/kg/day oral gavage 10 weeks. Format: in vivo, mouse. How it is done:
as §1
Assays for the BCKD activity were carried out as prescribed previously (Tso et al. (2014), supra). Briefly, frozen tissues were thawed and homogenized in a homogenizing buffer (30 mM KPi, pH 7.5, 3 mM EDTA, 5 mM DTT, 1 mM KIC, 3% fetal bovine serum, 5% Triton X-100, and 1 μM leupeptin). Samples were spun at 25,000×g and supernatants were collected. Diluted samples were placed in 24-well assay plates with assay buffer (30 mMKPi, pH7.5, 0.4 mM CoA, 3 mM NAD, 5% fetal bovine serum, 2 mM thiamine diphosphate, 2 mM MgCl2, and 65 μg of human E3). Keto [1-^14C] isovalerate substrate was added and assay plates were incubated at 37° C. for 30 min. 20% TCA solution was added to stop the reactions. Assay plates were incubated further at 37° C. for 45 min. ^14CO2 trapped on 2 M NaOH soaked filter wicks was counted in a liquid scintillation counter.

For assay [5], the system named is ob/ob mice. In words: Glucose and insulin tolerance, plasma insulin, food intake, body weight in ob/ob mice treated with BT2. It is filed as in vivo, mouse. The conditions noted are these: BT2 40 mg/kg/day. How it is done: as §1
(§2) Mice were fasted for 6 hours. For insulin tolerance test, mice were injected (intraperitoneal) with insulin (0.75 U/kg body weight). For glucose tolerance test, mice were injected intraperitoneally with D-glucose (2 g/kg body weight). Experiments were performed between 14:00 and 16:00. Blood was drawn 0, 15, 30, 60, and 120 min after insulin or glucose administration. Blood glucose concentrations were measured through tail bleeding before and at the times indicated after injection. Blood glucose was measured using a portable glucometer (Johnson&Johnson). Plasma insulin and TNFα concentrations were measured by Milliplex Multiplex Immunoassay Kits MMHMAG-44K-14 (Merck Millipore, Darmstadt, Germany).

Assay [6] is described as follows: Cardiac BCAA and BCKA assay post-TAC. Format: in vivo, mouse. The following applies: post-TAC heart, BT2 6 weeks. On the procedure: BCAA and BCKA concentration in mouse heart tissue were determined by mass spectrometer using the following transition s: KIC 203.1 to 161.1 (retention time: 2.91 min); KIV 189.145 to 119.2 (retention time 2.84 min); KMV 203.065 to 174.2 (retention time 2.99 min); [^13C] KIV 194.109 to 120.1 (retention time: 2.84 min). Val 174.1/72.1 (retention time 3.2 min), Leu 188.1/86.1 (retention time 5.9 min), Ile 188.2/86.1 (retention time 5.7 min).

The test system of assay [7] is BCKD subunit E1α. In words: Western blot of phosphorylated E1α and BCKDK in heart post-TAC. It is filed as in vivo, mouse. How it is done: Proteins from heart tissue were harvested in buffer (50 mM HEPES [pH7.4], 150 mM NaCl, 1% NP-40, 1 mM EDTA, 1 mM EGTA, 1 mM glycerophosphate, 2.5 mM sodium pyrophosphate 1 mM Na3VO4, 20 mM NaF, 1 mM phenylmethylsulfonyl fluoride, 1 μg/mL of aprotinin, leupeptin, and pepstatin). Samples were separated on 4-12% Bis-Tris gels (Invitrogen), and transferred onto a nitrocellulose blot (Amersham). The blot was probed with the indicated primary antibodies. Protein signals were detected using HRP conjugated secondary antibodies and enhanced chemiluminescence (ECL) western blotting detection regents (Pierce). Rabbit polyclonal antisera against the E1α subunits of BCKD complex and phosphor-E1α antibodies were purchased from Abcam. PP2Cm antibody was generated in the lab.

Assay [8] deals with high fat diet (HFD)-induced obese (DIO) mice. The experiment in a line: Glucose and insulin tolerance, plasma insulin in DIO mice treated with BT2. Format: in vivo, mouse. The conditions noted are these: BT2 40 mg/kg/day 8 weeks. On the procedure: as §1, §2

With `O=C(O)c1sc2cc(Cl)ccc2c1Cl` [BT2, 3,6-dichlorobenzo[b]thiophene-2-carboxylic acid], the “enhancement of cardiac BCKD activity” value in assay [1] (PP2Cm-KO mice) was approximately 9 fold. The “enhancement of cardiac BCKD activity” value in assay [1] (wild-type mice) was approximately 7 fold. The “plasma BCAA/BCKA levels” value in assay [2] is recorded as “lowers”. In addition, in assay [3] (BT2 treated mouse heart), the “PDK4 mRNA level” value was “trend of increase” and the “gene expression related to glucose transport” value was “unaffected”. Besides, the “mRNA level of CD36” value in assay [3] (BT2 treated mouse heart post-TAC) is on record as “moderately increased”. Also, in assay [3] (BT2 treated mouse hearts), the “genes related to fatty acid β-oxidation (Acox1, Acadm)” value is on record as “mild increase”. Besides, the “mitochondrial DNA amount and PGC-1a mRNA levels” value in assay [3] (vehicle vs BT2, post-sham or post-TAC) is reported as “unaffected”. Also, the “BCKD activity in different tissues including white adipose tissues” value in assay [4] was “significantly enhanced”. Moreover, in assay [5], the glucose tolerance entry was “significantly improved”, the hyperinsulinemia entry was “attenuation” and the insulin sensitivity entry is “significantly improved”. For the same compound, the “cardiac intra-tissue concentrations of BCAA and BCKA” value in assay [6] is “significant reduced”. Moreover, the “cardiac BCAA catabolic activities post-TAC” value in assay [7] (intragastric, six weeks) is “enhanced”. In addition, in assay [7] (post-TAC heart, BT2 40 mg/kg/day 6 weeks vs vehicle), the “BCKDK mediated E1α phosphorylation” value is listed as “significantly reduced”. In addition, in assay [7] (post-TAC heart, BT2 vs vehicle), the BCKDK protein expression entry is given as “insignificant effect”. Further, in assay [8], the glucose tolerance entry is “improved”, the hyperinsulinemia entry is “improved” and the insulin sensitivity entry is reported as “improved”.

Values taken from patent US20210278391A1, “COMPOSITIONS AND METHODS FOR TREATING CARDIOVASCULAR AND METABOLIC CONDITIONS” (The Regents of the University of California, priority 2017, published 2021).
